Test results: PubChem BioAssay (NCI)
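Briefly, cells in 96-well plates were exposed to five compound concentrations for 48 h, and endpoints were estimated by linear interpolation. GI50 is the concentration that inhibits growth by half. TGI is the concentration that stops growth completely.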

Experiments:
Experiment in all cases: DTP human tumour cell line panel, 48 h
[1] = test system: DU-145 prostate
[2] = test system: TK-10 renal
[3] = test system: HL-60(TB) leukemia
[4] = test system: KM12 colon
[5] = test system: NCI-H460 lung
[6] = test system: SF-539 CNS
[7] = test system: COLO 205 colon
[8] = test system: CAKI-1 renal
[9] = test system: HOP-92 NSCLC
[10] = test system: LOX IMVI melanoma

SMILES | GI50 [1] | TGI [1] | GI50 [2] | TGI [2] | GI50 [3] | TGI [3] | GI50 [4] | TGI [4] | GI50 [5] | TGI [5] | GI50 [6] | TGI [6] | GI50 [7] | TGI [7] | GI50 [8] | TGI [8] | GI50 [9] | TGI [9] | GI50 [10] | TGI [10]
N#C/C(=N\Nc1ccccc1)C(=O)Nc1cc(-c2ccccc2)nn1-c1ccccc1 | 4.08 µM | > 100 µM | 4.27 µM | > 100 µM | 2.94 µM | 22.1 µM | 2.97 µM | > 100 µM | 2.72 µM | 22.1 µM | 3.3 µM | 19.7 µM | 2.17 µM | 4.77 µM | 2.88 µM | > 100 µM | 0.181 µM | 2.58 µM | – | –
CCCCCC[C@@H](C)NC(=O)c1ccc(Nc2nc3ccccc3c3occc23)cc1 | 1.92 µM | 13.2 µM | 18.5 µM | 70.2 µM | 5.14 µM | > 100 µM | 38 µM | > 100 µM | 3.87 µM | > 100 µM | 2.07 µM | 5.29 µM | 3.08 µM | – | 2.82 µM | 28.3 µM | 1.99 µM | 7.91 µM | 19.3 µM | 42.4 µM
CC(=O)/C=C/C1=C(c2csc3ccccc23)c2ccccc2CC1 | 29.4 µM | > 100 µM | 23.5 µM | 92.9 µM | 13.6 µM | 58.3 µM | 14.1 µM | 33.8 µM | – | – | 26.4 µM | 71 µM | 20.5 µM | 64.8 µM | 32.4 µM | > 100 µM | 19.5 µM | 65.3 µM | 16.9 µM | 48.4 µM
Cc1[nH]c(N)nc(=S)c1CCC(=O)O | – | > 100 µM | – | > 100 µM | – | > 100 µM | – | > 100 µM | – | > 100 µM | – | > 100 µM | – | > 100 µM | – | > 100 µM | – | > 100 µM | – | > 100 µM
Cc1ccc2c(c1)C(=O)c1c-2c(OCCCN(C)C)nc2ccccc12 | 2.81 µM | 13.9 µM | 7.9 µM | 23.3 µM | 2.31 µM | 19.6 µM | 1.22 µM | 2.72 µM | 0.976 µM | 3.2 µM | 1.53 µM | 2.99 µM | 1.16 µM | 3.82 µM | 4.1 µM | 18.2 µM | 2.18 µM | 11.6 µM | 1.18 µM | 2.52 µM
O=C(CI)Nc1ccc(O)c2ccccc12 | 1.88 µM | 3.87 µM | 1.72 µM | 3.75 µM | 1.61 µM | 4.79 µM | 1.9 µM | 3.69 µM | 2.13 µM | 4.71 µM | 1.8 µM | 4.47 µM | 0.379 µM | 0.956 µM | 0.69 µM | 1.84 µM | 1.61 µM | 3.39 µM | 1.28 µM | 2.68 µM
Nc1nc2cc(CC[C@H]3C[C@@H](n4ccc5c(N)ncnc54)[C@H](O)[C@@H]3O)ccc2cc1Br | 13.1 µM | 27 µM | 12.2 µM | 26.3 µM | 14.1 µM | 38.5 µM | 11 µM | 25.9 µM | 10.9 µM | 26.5 µM | 13.2 µM | 27.6 µM | 11.3 µM | 37.3 µM | 4.38 µM | 21.9 µM | 6.66 µM | 39.9 µM | 3.95 µM | 22.6 µM
COC1=CC(c2ccc[nH]2)=N/C1=C\c1[nH]c(C)c(CC(=O)OCc2ccccc2)c1C | 0.324 µM | 10.9 µM | 0.351 µM | 2.11 µM | 0.537 µM | 2.44 µM | 0.272 µM | 2.28 µM | 0.327 µM | 1.72 µM | – | – | 0.24 µM | 1.27 µM | 0.307 µM | 2.27 µM | 0.244 µM | 0.81 µM | 0.214 µM | 0.753 µM
CC([C@H]1CC=C2C3CCC4=C[C@@H](N(C)C)CC[C@]4(C)C3CC[C@@]21C)N(C)C (stereo partly specified) | 6.63 µM | 20.4 µM | 5.42 µM | 20 µM | 1.26 µM | 3.66 µM | 2.77 µM | 11.9 µM | 2.07 µM | 5.48 µM | 1.4 µM | 2.84 µM | 1.7 µM | 3.37 µM | 2.49 µM | 10.3 µM | 3.66 µM | 10.3 µM | 1.6 µM | 3.69 µM
CC(=O)O[C@H]1C(=O)[C@@]2(C)[C@H]([C@H](OC(=O)c3ccccc3)[C@]3(O)C[C@H](OC(=O)[C@H](OC(=O)OC[C@H]4COC(C)(C)O4)[C@@H](NC(=O)c4ccccc4)c4ccccc4)C(C)=C1C3(C)C)[C@]1(OC(C)=O)CO[C@@H]1C[C@@H]2O | 0.029 µM | – | 0.492 µM | > 33.3 µM | 0.0168 µM | > 33.3 µM | 0.00943 µM | > 33.3 µM | 0.00601 µM | > 33.3 µM | 0.0579 µM | 16.7 µM | 0.0216 µM | > 33.3 µM | 0.0885 µM | > 33.3 µM | 0.0519 µM | > 33.3 µM | 0.014 µM | > 33.3 µM
NC(=O)c1cccc(OCC(O)CO)c1 (stereo unspecified) | – | > 100 µM | – | > 100 µM | – | > 100 µM | – | > 100 µM | – | > 100 µM | – | > 100 µM | – | > 100 µM | – | > 100 µM | – | – | – | –
ClCc1ccccc1Cn1cnc2c(Cl)ncnc21 | 5.65 µM | 34.4 µM | 23.1 µM | 46.7 µM | – | – | 16.6 µM | 33.2 µM | 15.4 µM | 44.5 µM | 10.7 µM | 24.2 µM | 3.89 µM | > 100 µM | 1.83 µM | 4.14 µM | 1.49 µM | 4.27 µM | 2.14 µM | 5.21 µM
O=C(C#Cc1ccccc1)C1=Cc2ccccc2OC1 | – | 20.7 µM | – | 3.58 µM | – | > 100 µM | – | 9.67 µM | – | 23.7 µM | – | – | – | 3.93 µM | – | 3.47 µM | – | – | – | 6.32 µM
COc1ccc(NC(=O)c2sc3nc(C)c(C(=O)/C=C/c4cccc(OC)c4)cc3c2N)cc1 | 1.64 µM | 5.66 µM | 1.91 µM | 15.3 µM | 1.34 µM | 4.24 µM | 1.45 µM | 5.06 µM | 1.07 µM | 2.45 µM | 1.31 µM | 3.49 µM | 2 µM | 10.9 µM | 1.96 µM | 6.99 µM | 1.51 µM | 9.99 µM | 0.906 µM | 1.71 µM
